The nature of this test: Blood glucose depression profile after subcutaneous injection in fasted normal non-diabetic rats. In kind it is in vivo, Male Sprague-Dawley rats. Here is the method: Subcutaneous injections of the insulin-dextran were administered using 0.25 ml of a sterilized 1×PBS solution ([…] of equivalent insulin/ml) behind the neck of fasted normal non-diabetic rats (Male Sprague-Dawley, 200-250 g, n=4). Blood samples were collected via tail vein bleeding at −15 and 0 minutes, and at 15, 30, 45, 60, 90, 120, 180, 240, 300 and 360 minutes after injection.
This example evaluates the in vivo pharmacodynamic profile of subcutaneously administered insulin-glycogen. The insulin-glycogen conjugate was synthesized according to Example 8. The bioactivity of the insulin-glycogen conjugate was evaluated by injecting a 2.5 equivalent U of insulin/kg dose behind the neck of fasted normal non-diabetic rats (Male Sprague-Dawley, 200-250 g, n=4). Blood samples were collected via tail vein bleeding at −15 and 0 minutes, and at 15, 30, 45, 60, 90, 120, 180, 240, 300 and 360 minutes after injection. […] This rapid action and elimination profile is due to the rapid enzymatic digestion of the high MW glycogen polymer chain following subcutaneous injection.

[1] abbreviates: 0.25 ml of 20 U of equivalent insulin/ml, FIG. 5.

For “insulin-dextran: comparative conjugate of recombinant human insulin and dextran (MW 70K) made by CNBr coupling”, under setting [1], the “time serum glucose levels remain depressed post injection” value is listed as “at least five” and the “time to reach the glucose nadir (Tnadir)” value was “about 3 hours”.

“insulin-glycogen: comparative conjugate of insulin and oyster glycogen (Type II) made by CNBr coupling, Example 8”: the “glucose lowering as compared to the insulin-dextran conjugates” value (2.5 equivalent U of insulin/kg, FIG. 6) was “lower glucose levels much more rapidly and to a greater extent”.

Values taken from patent US9095623B2, “Terminally-functionalized conjugates and uses thereof” (SmartCells, Inc., priority 2009, dated 2015).
